Experiments:
[1] = target: Serine/threonine-protein kinase B-raf (Homo sapiens, UniProt P15056, V600E); assay: Inhibition of human recombinant GST-tagged BRAF catalytic domain (416 to 766 residues) V600E mutant expressed in baculovirus expression system preincubated for 1 hr followed by human full length recombinant N-terminal His-tagged MEK1 substrate addition measured after 25 mins by gel electrophoresis method
[2] = Antiproliferative activity against human A375 cells assessed as cell growth inhibition after 24 hrs by MTT assay; assay type: functional, cell-based; settings: A-375, 24 h
[3] = Antiproliferative activity against human WM266.4 cells harboring BRAF V600E mutant assessed as cell growth inhibition after 24 hrs by MTT assay; assay type: functional, cell-based; settings: WM 266-4, 24 h
[4] = Antiproliferative activity against human WM1361 cells assessed as cell growth inhibition after 24 hrs by MTT assay; assay type: functional, cell-based; settings: WM1361, 24 h
[5] = Cytotoxicity against human 293T cells assessed as cell growth inhibition after 24 hrs by MTT assay; assay type: toxicity, cell-based, HEK-293T

Sequence of Serine/threonine-protein kinase B-raf (P15056 2-766 V600E limits assumed): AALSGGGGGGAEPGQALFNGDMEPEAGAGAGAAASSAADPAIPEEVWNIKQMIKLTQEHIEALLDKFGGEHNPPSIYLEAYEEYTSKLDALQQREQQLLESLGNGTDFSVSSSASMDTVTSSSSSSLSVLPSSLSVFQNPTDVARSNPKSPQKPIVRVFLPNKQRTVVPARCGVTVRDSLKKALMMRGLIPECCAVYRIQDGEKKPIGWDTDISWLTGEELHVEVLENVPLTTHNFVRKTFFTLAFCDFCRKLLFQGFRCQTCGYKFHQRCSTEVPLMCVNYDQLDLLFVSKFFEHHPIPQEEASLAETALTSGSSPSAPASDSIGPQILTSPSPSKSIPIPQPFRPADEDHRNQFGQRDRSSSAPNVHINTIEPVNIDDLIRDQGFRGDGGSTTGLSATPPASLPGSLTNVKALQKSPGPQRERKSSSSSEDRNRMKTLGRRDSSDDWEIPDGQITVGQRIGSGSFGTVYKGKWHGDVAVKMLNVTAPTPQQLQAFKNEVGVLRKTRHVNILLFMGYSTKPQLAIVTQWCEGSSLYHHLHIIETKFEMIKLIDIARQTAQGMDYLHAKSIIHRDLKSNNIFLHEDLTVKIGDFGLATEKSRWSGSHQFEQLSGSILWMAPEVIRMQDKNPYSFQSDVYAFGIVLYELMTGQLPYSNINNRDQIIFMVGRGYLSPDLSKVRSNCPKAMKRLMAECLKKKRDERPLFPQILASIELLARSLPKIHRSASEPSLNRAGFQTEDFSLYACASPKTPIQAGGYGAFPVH

| Structure (SMILES) | IC50 [1] | IC50 [2] | IC50 [3] | IC50 [4] | CC50 at 24 h [5] |
| --- | --- | --- | --- | --- | --- |
| O=c1oc2ccccc2c(N2CCN(c3cccc(Cl)c3Cl)CC2)c1CO | 3.27 µM | 8.45 µM | 6.56 µM | 45.9 µM | > 50 µM |
| COc1ccccc1N1CCN(c2c(CO)c(=O)oc3ccccc23)CC1 | 10.1 µM | 20 µM | 18.3 µM | > 50 µM | > 50 µM |
| CCCS(=O)(=O)Nc1ccc(F)c(C(=O)c2c[nH]c3ncc(-c4ccc(Cl)cc4)cc23)c1F [VEMURAFENIB] | – | 0.21 µM | 0.07 µM | 1.86 µM | > 50 µM |
| O=c1oc2ccccc2c(N2CCN(c3cccc(C(F)(F)F)c3)CC2)c1CO | 24.2 µM | 31.9 µM | 30 µM | > 50 µM | > 50 µM |
| O=c1oc2ccccc2c(N2CCN(c3ccccc3F)CC2)c1CO | 22 µM | 32.1 µM | 37.6 µM | > 50 µM | > 50 µM |
| CCN1CCN(c2c(CO)c(=O)oc3ccccc23)CC1 | > 50 µM | > 50 µM | > 50 µM | > 100 µM | > 50 µM |
| O=c1oc2ccccc2c(N2CCN(c3ccc(F)cc3)CC2)c1CO | 17.8 µM | 24.7 µM | 23.4 µM | > 50 µM | > 50 µM |

— ChEMBL document CHEMBL3853342, “Design, synthesis and biological evaluation of novel benzo-α-pyrone containing piperazine derivatives as potential BRAFV600E inhibitors” (Bioorg Med Chem Lett, 2016)
